# From publication PMC3680066 (BMC Microbiology, 2013)
# Target: leucine aminopeptidase (LAP), pepA (Burkholderia pseudomallei, UniProt Q63WC3)
# Assay: biochemical
# Details: read-out: Relative activity (%)
# Sequence of leucine aminopeptidase (LAP), pepA (Q63WC3 whole entry, looked up): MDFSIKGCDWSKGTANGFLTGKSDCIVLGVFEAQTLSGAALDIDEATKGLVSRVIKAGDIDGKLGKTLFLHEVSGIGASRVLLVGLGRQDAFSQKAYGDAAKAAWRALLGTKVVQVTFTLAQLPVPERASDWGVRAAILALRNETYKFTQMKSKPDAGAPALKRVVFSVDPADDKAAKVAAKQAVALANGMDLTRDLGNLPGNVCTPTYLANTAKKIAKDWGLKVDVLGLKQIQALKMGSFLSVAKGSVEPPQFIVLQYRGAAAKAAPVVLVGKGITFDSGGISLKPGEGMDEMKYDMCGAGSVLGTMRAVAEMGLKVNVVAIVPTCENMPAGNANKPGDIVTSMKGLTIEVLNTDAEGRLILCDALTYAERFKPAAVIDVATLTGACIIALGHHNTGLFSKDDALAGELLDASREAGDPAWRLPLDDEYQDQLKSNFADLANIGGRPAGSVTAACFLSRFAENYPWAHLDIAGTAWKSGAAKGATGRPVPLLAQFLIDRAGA
smiles,measurement,value
CC(C)C[C@@H](N)[C@H](O)C(=O)N[C@H](C(=O)N[C@H](C(=O)N[C@@H](CC(=O)O)C(=O)O)C(C)C)C(C)C [amastatin],activity at 2000 µM,0%
